Measurements: patent US11878972B2, “Treatment of neurological disorders” (TORQUR AG, priority 2016, dated 2024)

Legend:
[1] = test system: pS6 S235/S236 in A2058 cells; assay: In-cell Western blot, pS6 S235/S236; format: cell-based; conditions: Homo sapiens, A2058, 1 h, treated for 1 hour, normalized to α-tubulin
Protocol: Cells are fixed with 4% paraformaldehyde for 30 minutes at room temperature, washed 2 times with 1% BSA in PBS, permeabilized with 0.1% Triton X-100 in PBS/1% BSA for 30 minutes at room temperature and blocked with 5% goat serum in PBS/1% BSA/0.1% Triton X-100 for 30 minutes at room temperature. […] Cells are washed 3 times 5 minutes with PBS/1% BSA/0.1% triton and plate scanned with the Odyssey Infrared Scanning system using both 700 and 800 nm channels. […] To correct for background staining in the data analysis wells are treated only with secondary antibodies.
For data analysis the mean background signal from channel 700 nm and 800 nm are subtracted from each signal in channel 700 nm and 800 nm, respectively.
IC50 values of each compound are determined by plotting the normalized pPBK S473 and pS6 S235/S236 signals, respectively, versus the compound concentrations (in logarithmic scale) and then by fitting a sigmoidal dose-response curve with variable slope to the data using GraphPad™ Prism.

[2] = test system: 51Q-HTT-Exon1-eGFP transfected HEK cells; assay: Filter trap assay of mutHTT aggregates; format: cell-based, human; conditions: 8 hours; Cpd. 3 400, 1230 nM; Cpd. 8 130, 1230 nM; INK128 100 nM; Rapamycin 400 nM
Protocol: HEK cells were transiently transfected with pcDNA3.1/V5-His vector from Clontech (Mountain View, USA) containing the expression sequence for Exon1 of HTT with a 19Q (no aggregation) or 51Q extension and enhanced green fluorescence protein (eGFP) tag using Attractene Transfection Reagent (Qiagen, Netherlands). 1×10^6 cells were seeded in a 6 well plate. On the next day 2 μg DNA were mixed with 95.5 μl transfection media and 4.5 μl transfection reagent. After an incubation time of 15 min the mixture was added to the cells. After 72 hours cells were harvested or fixed for analysis.
HEK cells transfected with 19Q- or 51Q-HTT-Exon1-eGFP were treated with DMSO control. 51Q-HTT-Exon I-eGFP HEK cells form aggregates. These cells were treated with Cpd. 3 (400, 1230 nM), Cpd. […] After 30 min incubation on ice, cells were homogenized (Dounce Homogenizer, Thermo Fisher, USA). 50 μg of protein solution in PBS was supplemented with 2% SDS (Roth, Germany). Samples were sucked through a nitrocellulose membrane (0.45 μm) and washed twice with PBS buffer.

[3] = test system: autophagic markers LC3II and p62; assay: Induction of autophagy in brain of mice (western blot LC3, p62); format: in vivo, mouse; conditions: single oral administration 50 mg/kg
Protocol: In order to investigate whether mTOR inhibition by Cpd. 3 and Cpd. 8 induces autophagy—the essential mechanism for huntingtin aggregate clearance-in the brain, BALB/c nude mice were treated with Cpd. 3 and Cpd. 8 as described in sample 5.

[4] = test system: mTOR signaling cascade (phosphorylation of S6rP and AKT); assay: Target engagement in brain and thigh muscle (western blot); format: in vivo, mouse; conditions: single oral 50 mg/kg
Protocol: Tissue was snap frozen in liquid nitrogen and stored at −80° C. Tissue was thawed and lysed in RIPA buffer 1 ml/half brain. Complete protease inhibitor and PhosStop phosphatase inhibitor (Roche) was added to the buffer before lysis. Tissue was homogenized manually and centrifuged twice at 16000 rpm, 4° C. for 20 minutes. Supernatant was frozen with 10% glycerol at −80° C. Protein concentration was performed using Bradford reagent. For western blot analysis of AKT and S6rP phosphorylation, 30 μg of protein was denatured with β-mercaptoethanol at 95° C. and separated on SDS page gels at 100 V. Then proteins were transferred to a nitrocellulose membrane (Bio-Rad, USA) at 80 V. Non-specific binding was blocked with 5% bovine serum albumin (BSA) (Sigma-Aldrich, USA). Membranes were incubated over night with primary antibody dissolved in TBST, 5% BSA at 4° C. and with secondary antibody coupled to horseradish peroxidase (GE Healthcare, UK) for 1 hour at RT and washed. Imaging of protein bands was performed using Luminol (Biozym, Hamburg, Germany. On a Li-Cor Odyssey FC reader. Quantification of S6-phosphorylation was determined with the same imaging system.
The following antibodies were used: • AKT, P-AKT (S473), S6rP, P-S6rP(S235/236): Cell Signaling (UK) • β-actin: Sigma Aldrich, USA

[5] = test system: R6/2 mice (mutHTT aggregates in the striatum); assay: Immunohistochemistry of mutHTT aggregates in striata of long-term treated R6/2 mice; format: in vivo, mouse; conditions: p.o. 11.5 weeks, Cpd. 3 65 mg/kg, Cpd. 8 16.25 mg/kg, versus vehicle controls
Text: An in vivo model of Huntington's disease was used to evaluate the efficacy of Cpd. 3 and cpd. 8 in reducing mutHTT aggregate formation in the striatum. R6/2 mice are a B6CBA-Tg(HDexon1)62Gbp/3J Huntington's disease mouse model expressing exon 1 of the human huntingtin gene with an extension of 160 f 5 CAG repeats. Mice have a severe phenotype that develops between 4 and 12 weeks.
Treatment groups were established from genotype and measurement of weight, rotarod performance and litter. They were distributed equally over the four groups, each group contained 12 animals. R6/2 mice and their wt counterparts were dosed in the following treatment groups: 1. Wt, vehicle (20% SBECD in water, pH 3); 2. R6/2 vehicle (20% SBECD in water, pH 3); 3. R6/2 Cpd. 3 (65 mg/kg); 4. R6/2 Cpd.8 (16.25 mg/kg). Per oral dosing was performed for 6 days with a following drug holiday of 1 day for a total of 11.5 weeks.
To detect mutHTT aggregates, immunostaining of striata was performed. […]
Images were acquired using a Zeiss Axioplan microscope (Plan-NEOFLUAR×40/0.75 objective, AxioCam MRc) and Axiovision 4.8 software (Carl Zeiss Microscopy GmbH, Jena, Germany). Per animal three subsequent sections of the striatum were analyzed, 4 animals were analysed The EM48 positive structures were analyzed with the ImageJ built in particle analysis, with a fixed threshold for all pictures (ImageJ 1.47v; NIH, Bethesda, MD, USA). […]

Row | SMILES | IC50 [1] [µM] | mutHTT aggregates (filter trap) [2] | autophagic marker LC3II in brain [3] | autophagic marker p62 in brain [3] | phosphorylation of S6rP and AKT in brain and thigh muscle ([4]; B57BL/6J mice) | S6 phosphorylation in brain lysates ([4]; mice, 30 minutes to 8 hours) | S6 phosphorylation in thigh muscle lysates ([4]; mice, 30 minutes to 8 hours) | number of mutHTT aggregates counted in striata [5]
1 | C[C@H]1COCCN1c1nc(-c2cnc(N)cc2C(F)F)nc(N2CCOCC2)n1 [Compound 8, (S)-4-(difluoromethyl)-5-(4-(3-methylmorpholino)-6-morpholino-1,3,5-triazin-2-yl)pyridin-2-amine] | 0.068 | – | – | – | – | – | – | –
2 | Nc1cc(C(F)F)c(-c2nc(N3C4CCC3COC4)nc(N3C4CCC3COC4)n2)cn1 [Compound 3, 5-(4-(3-oxa-8-azabicyclo[3.2.1]octan-8-yl)-6-(3-oxa-8-azabicyclo[3.2.1]octan-8-yl)-1,3,5-triazin-2-yl)-4-(difluoromethyl)pyridin-2-amine] | – | significant reduction of cytotoxic mutHTT aggregates | time-dependent increase | decrease | significantly reduced phosphorylation of S6rP and AKT | reduction of S6 phosphorylation | reduction of S6 phosphorylation | not changed
